Experimental data from article PMC6001834 (Drug Design, Development and Therapy, 2018).

Test system: AMI rats
Test: In vivo effects of LNCs on infarct size
Design: species or system Sprague-Dawley rats
Conditions: intravenous injection, n=8, AMI group 58%

With `Nc1ncnc2c1ncn2[C@@H]1O[C@H](CO)[C@@H](O)[C@H]1O` [free Ade, Adenosine] the “infarct size (percentage of whole size of the left ventricle)” value was 47%.
